Assays:
[1] = system: BAK melanoma cells xenografted into athymic mice; test: mouse xenografting, tumor growth; type: in vivo; settings: gavage; for tumor growth (in words): trametinib 0.1 or 3 mg/kg/qd, alone or combined
Method: All animal experiments were performed in accordance with the guidelines and approval of Georgetown University Animal Care and Use Committee. Athymic 6-week old male mice (Taconic) were acclimated to the Division of Comparative Medicine at Georgetown University a week prior to xenografting. 3×10^6 melanoma cells were resuspended in Matrigel and injected subcutaneously into the hind flanks of athymic mice using a 22-gauge needle. […] Drugs were administered by oral gavage. Each testing group contained three to five mice in each of four experiments. Each tumor from each treatment group was measured on indicated days, and all tumor sizes were then normalized to their size at day 0 of drug treatment. All data from all four experiments was then combined for statistical analysis, to compare every mouse from each treatment group. […] The results were expressed as the mean (±SD) of tumor volume in each group. After five weeks, mice were euthanized; tumors extracts were derived for immunoblot analysis. […] This yields a similar constant to that calculated by Mosteller for humans: BSA (m^2) = [[…] (kg)]*60 [36]. […] For high dose trametinib, this is equivalent to 14.4 mg/person/day. […] By comparison, patient doses range from 100 mg one time (pinworms) to 200 mg/kg per day for 12 weeks ([…] disease in children) including doses up to 6 g per day. […] The results shown are based on a single experiment in triplicate, and repeated in three independent experiments with essentially the same results. […] For tumor sizes, the rate-based T/C (tumor/control) test of significance was used as described, using the author's template. The results are representative of 3 independent experiments with reproducible results. For determining synergism, the combination index (τ) was calculated from single dose-response curves and combination experiments as τ = xA/XA+xB/XB, in which, for a given cytotoxic effect, xA and xB are the concentrations of drugs A and B in the combination, and XA and XB are the concentrations of drugs A and B that achieve the same cytotoxic effect when given alone.

pMEK1/2 S217/221 = test: immunoblot analysis of BAK cells; type: cell-based, human; settings: 100 nM, combination within 30 min
Method: (§1) SDS-PAGE and transfer of separated proteins to nitrocellulose membranes were performed according to standard procedures. Membranes were stained with Ponceau S (0.1%) to verify equal loading and transfer of proteins, and then incubated with antibodies specific for pERK1/2 T202/Y204, pMEK1/2 S217/221, pBAD S-112, total BAD, total ERK1/2, total MEK1/2, BCL2 (Santa Cruz Biotech), BCLXL (Santa Cruz Biotech), cleaved PARP (Cell Signaling), or GAPDH (Abcam; loading control). Immune complexes were detected by incubation with appropriate horseradish peroxidase-conjugated antibodies to mouse or rabbit IgG (1:3000) and enhanced chemiluminescence (Pierce, Rockford, IL).

[2] = system: phosphorylation of ERK1/2 (T202/Y204); test: immunoblot analysis of BAK cells; type: cell-based, human; settings: 100 nM, combination undetectable by 30 min
Method: as §1

PDGFRB = system: PDGFRB; set-up: method as in PMID 26234515, PMID 22780961, PMID 24135855; settings: cited from earlier work
MEK1 = MEK1 (Homo sapiens, UniProt Q02750); test: in vitro kinase assay, percent control; type: binding; settings: Kinase Target MEK1
C-RAF = C-RAF (Homo sapiens, UniProt P04049); test: in vitro kinase assay, percent control; type: binding; settings: Kinase Target C-RAF
[3] = set-up: method as in PMID 7094986; settings: chronic oral MBZ 10 mg/kg/day, cited from earlier work
BRAF (V600E) = BRAF (V600E) (Homo sapiens, UniProt P15056, V600E); test: in vitro kinase assay, percent control and binding affinity; settings: Kinase Target BRAF (V600E)
[4] = system: BAK, BUL and STU melanoma cells; test: XTT cell viability assay, statements for all three lines; type: cell-based, human; settings: 72 h; for concentration at which significant growth inhibition was observed: 2-way ANOVA; for cytotoxic activity as single agent (in words): all three cell lines
Method: MBZ, dabrafenib, and trametinib were purchased from Sigma-Aldrich and ActiveBiochem, respectively. 5 × 10^3 viable cells per well were plated in 96-well dishes and allowed to recover for 12 h prior to drug treatment. Cells in triplicate wells were treated for up to 72 h (based on initial time course experiments showing maximal effects at that time point) with different concentrations of trametinib, dabrafenib, or MBZ alone, or a combination of MBZ and trametinib. Negative controls were exposed to vehicle DMSO in the same volumes. Cell viability was assessed by an XTT assay, according to a manufacturer's specifications (Biotium Inc). Reduced XTT was measured by absorbance at 490 nm on a PerkinElmer Victor3 plate reader. Cells exposed to detergent served as a positive control.
The results shown are based on a single experiment in triplicate, and repeated in three independent experiments with essentially the same results. Data from triplicates of treatment groups were compared using Student's t-test or 2-way ANOVA (multiple comparisons) for significance, and p values of < 0.05 were considered statistically significant. For tumor sizes, the rate-based T/C (tumor/control) test of significance was used as described, using the author's template. The results are representative of 3 independent experiments with reproducible results. For determining synergism, the combination index (τ) was calculated from single dose-response curves and combination experiments as τ = xA/XA+xB/XB, in which, for a given cytotoxic effect, xA and xB are the concentrations of drugs A and B in the combination, and XA and XB are the concentrations of drugs A and B that achieve the same cytotoxic effect when given alone. A τ value of 1 indicates additivity, τ less than 1 indicates synergy, and τ greater than 1 indicates antagonism.

VEGFR-2 = system: VEGFR-2; set-up: method as in PMID 26234515, PMID 22780961, PMID 24135855; settings: cited from earlier work
BRAF = BRAF (Homo sapiens, UniProt P15056); test: in vitro kinase assay, percent control and binding affinity
VEGFR2 = VEGFR2 (Homo sapiens, UniProt P35968); test: as above; settings: Kinase Target VEGFR2
PDGFRA = system: PDGFRA; set-up: method as in PMID 26234515, PMID 22780961, PMID 24135855; settings: cited from earlier work
[5] = system: MEK1/2 and ERK1/2 phosphorylation; test: immunoblot analysis of tumor xenograft extracts; type: in vivo, mice; settings: tumors collected at termination; combination = HDT+MBZ
Method: All animal experiments were performed in accordance with the guidelines and approval of Georgetown University Animal Care and Use Committee. Athymic 6-week old male mice (Taconic) were acclimated to the Division of Comparative Medicine at Georgetown University a week prior to xenografting. 3×10^6 melanoma cells were resuspended in Matrigel and injected subcutaneously into the hind flanks of athymic mice using a 22-gauge needle. […] Drugs were administered by oral gavage. Each testing group contained three to five mice in each of four experiments. Each tumor from each treatment group was measured on indicated days, and all tumor sizes were then normalized to their size at day 0 of drug treatment. All data from all four experiments was then combined for statistical analysis, to compare every mouse from each treatment group. […] The results were expressed as the mean (±SD) of tumor volume in each group. After five weeks, mice were euthanized; tumors extracts were derived for immunoblot analysis. SDS-PAGE and transfer of separated proteins to nitrocellulose membranes were performed according to standard procedures. […] Immune complexes were detected by incubation with appropriate horseradish peroxidase-conjugated antibodies to mouse or rabbit IgG (1:3000) and enhanced chemiluminescence (Pierce, Rockford, IL).

MEK2 = MEK2 (Homo sapiens, UniProt P36507); test: in vitro kinase assay, percent control; type: binding; settings: Kinase Target MEK2
roundworm tubulin = target: roundworm tubulin; set-up: method as in PMID 7388055; settings: nematode and cestode parasite tubulin; read-out: apparent binding affinity for tubulin; cited from earlier work
human tubulin = target: human tubulin; set-up: method as in PMID 7388055; settings: much lower than for parasite tubulin; cited from earlier work
[6] = system: BAK and BUL melanoma cells; test: apoptosis (fluorometric caspase-3 activity, sub-G1) and cell cycle assays; type: cell-based, human; settings: 100 nM, all time points
Text: Cells were collected, fixed in ethanol, stained with propidium iodide (PI) to determine DNA content, and analyzed by flow cytometry (FACStar PLus; BD BioSciences, San Jose, CA).
Cytosolic extracts, derived from pooled floating and attached cells, were subjected to fluorometric caspase-3 activity assays using fluorescent tetrapeptide substrate specific for caspases-3 (Ac-DEVD-aminomethylcoumarin (AMC, Enzo Life Sciences, Ann Arbor, MI) as previously described. Free AMC, generated as a result of cleavage of the aspartate-AMC bond, was monitored over 30 min with a Wallac Victor^3 fluorometer (Perkin-Elmer, Waltham, MA) at excitation and emission wavelengths of 360 and 460 nm, respectively. The emission from each sample was plotted against time, and linear regression analysis of the initial velocity (slope) for each curve yielded the activity.

Chain of BRAF (V600E) (P15056 whole entry V600E): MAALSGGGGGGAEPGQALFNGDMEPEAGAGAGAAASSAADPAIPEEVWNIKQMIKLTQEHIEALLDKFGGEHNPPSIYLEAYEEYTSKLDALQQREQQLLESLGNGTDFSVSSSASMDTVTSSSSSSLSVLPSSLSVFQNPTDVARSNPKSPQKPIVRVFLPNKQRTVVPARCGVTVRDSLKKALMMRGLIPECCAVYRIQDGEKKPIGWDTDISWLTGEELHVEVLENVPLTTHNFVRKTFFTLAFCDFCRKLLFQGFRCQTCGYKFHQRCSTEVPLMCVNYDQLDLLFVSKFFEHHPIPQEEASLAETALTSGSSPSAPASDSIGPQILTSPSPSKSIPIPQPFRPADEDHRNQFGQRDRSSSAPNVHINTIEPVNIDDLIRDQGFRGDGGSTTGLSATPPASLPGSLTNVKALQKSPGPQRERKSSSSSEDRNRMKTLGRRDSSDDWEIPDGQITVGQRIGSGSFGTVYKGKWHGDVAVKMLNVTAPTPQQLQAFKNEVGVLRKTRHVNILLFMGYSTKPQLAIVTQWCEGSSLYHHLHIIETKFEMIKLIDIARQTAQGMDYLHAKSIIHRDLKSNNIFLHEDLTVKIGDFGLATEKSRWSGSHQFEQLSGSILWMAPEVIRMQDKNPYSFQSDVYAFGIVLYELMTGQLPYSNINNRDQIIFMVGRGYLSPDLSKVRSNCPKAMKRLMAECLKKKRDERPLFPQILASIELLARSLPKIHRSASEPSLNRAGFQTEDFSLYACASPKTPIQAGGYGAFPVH
Chain of BRAF (P15056 whole entry): as the sequence (P15056 whole entry V600E) above, with E600V counted along it
Chain of MEK1 (Q02750 whole entry): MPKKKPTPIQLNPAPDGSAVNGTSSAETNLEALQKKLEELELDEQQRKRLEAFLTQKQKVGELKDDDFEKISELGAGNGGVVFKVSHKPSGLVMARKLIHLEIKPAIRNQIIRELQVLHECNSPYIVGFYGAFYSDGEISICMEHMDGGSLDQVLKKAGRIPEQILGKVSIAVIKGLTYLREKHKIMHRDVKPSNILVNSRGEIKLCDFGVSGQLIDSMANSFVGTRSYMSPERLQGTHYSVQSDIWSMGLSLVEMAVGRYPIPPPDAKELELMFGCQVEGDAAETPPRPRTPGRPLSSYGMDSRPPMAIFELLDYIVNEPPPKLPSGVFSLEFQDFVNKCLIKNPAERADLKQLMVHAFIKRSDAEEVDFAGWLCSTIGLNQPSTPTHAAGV
Chain of VEGFR2 (P35968 20-1356): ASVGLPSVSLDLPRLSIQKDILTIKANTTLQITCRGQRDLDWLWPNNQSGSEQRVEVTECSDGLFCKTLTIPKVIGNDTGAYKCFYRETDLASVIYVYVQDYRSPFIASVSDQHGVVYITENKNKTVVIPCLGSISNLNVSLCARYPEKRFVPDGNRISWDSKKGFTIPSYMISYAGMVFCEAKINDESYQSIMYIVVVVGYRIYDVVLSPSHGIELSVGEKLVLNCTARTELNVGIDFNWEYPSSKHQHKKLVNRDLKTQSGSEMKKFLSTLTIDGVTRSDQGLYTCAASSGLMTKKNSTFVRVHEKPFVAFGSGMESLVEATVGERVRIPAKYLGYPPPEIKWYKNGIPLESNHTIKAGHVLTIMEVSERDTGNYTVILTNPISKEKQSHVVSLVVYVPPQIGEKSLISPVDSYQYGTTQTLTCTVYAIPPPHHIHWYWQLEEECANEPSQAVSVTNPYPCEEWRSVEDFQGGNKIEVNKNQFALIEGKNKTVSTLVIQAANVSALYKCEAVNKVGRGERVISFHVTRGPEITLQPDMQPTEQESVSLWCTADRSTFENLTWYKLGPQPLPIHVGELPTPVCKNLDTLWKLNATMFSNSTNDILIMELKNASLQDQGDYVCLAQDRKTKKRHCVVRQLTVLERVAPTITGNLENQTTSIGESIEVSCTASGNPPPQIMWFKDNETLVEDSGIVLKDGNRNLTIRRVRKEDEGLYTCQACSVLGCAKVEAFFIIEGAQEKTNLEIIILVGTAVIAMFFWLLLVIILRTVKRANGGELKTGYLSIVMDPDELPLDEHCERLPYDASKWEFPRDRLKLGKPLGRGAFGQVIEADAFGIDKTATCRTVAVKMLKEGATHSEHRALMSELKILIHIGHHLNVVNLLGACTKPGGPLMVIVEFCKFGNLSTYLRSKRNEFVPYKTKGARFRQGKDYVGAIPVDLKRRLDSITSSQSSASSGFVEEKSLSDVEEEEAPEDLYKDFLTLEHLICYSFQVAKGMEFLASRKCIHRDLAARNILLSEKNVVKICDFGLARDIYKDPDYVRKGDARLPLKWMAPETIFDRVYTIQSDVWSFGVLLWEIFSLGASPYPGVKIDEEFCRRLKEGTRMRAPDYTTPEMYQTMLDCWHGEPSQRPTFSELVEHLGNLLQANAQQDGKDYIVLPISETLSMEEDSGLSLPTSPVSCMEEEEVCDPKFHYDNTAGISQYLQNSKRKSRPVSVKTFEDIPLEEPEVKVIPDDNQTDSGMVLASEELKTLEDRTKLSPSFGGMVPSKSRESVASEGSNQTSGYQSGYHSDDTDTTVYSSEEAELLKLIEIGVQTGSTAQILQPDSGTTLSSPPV
Chain of MEK2 (P36507 whole entry): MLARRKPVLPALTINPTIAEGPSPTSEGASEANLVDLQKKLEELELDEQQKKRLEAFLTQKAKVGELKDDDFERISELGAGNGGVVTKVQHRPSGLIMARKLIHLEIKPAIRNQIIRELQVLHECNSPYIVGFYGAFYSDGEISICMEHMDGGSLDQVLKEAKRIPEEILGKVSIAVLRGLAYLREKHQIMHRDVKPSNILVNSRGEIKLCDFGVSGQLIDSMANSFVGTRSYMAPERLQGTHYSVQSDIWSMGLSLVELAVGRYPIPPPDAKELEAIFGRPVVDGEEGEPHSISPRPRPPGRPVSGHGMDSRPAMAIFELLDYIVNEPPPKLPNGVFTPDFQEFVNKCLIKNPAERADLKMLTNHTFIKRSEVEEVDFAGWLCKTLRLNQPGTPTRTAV
Chain of C-RAF (P04049 whole entry): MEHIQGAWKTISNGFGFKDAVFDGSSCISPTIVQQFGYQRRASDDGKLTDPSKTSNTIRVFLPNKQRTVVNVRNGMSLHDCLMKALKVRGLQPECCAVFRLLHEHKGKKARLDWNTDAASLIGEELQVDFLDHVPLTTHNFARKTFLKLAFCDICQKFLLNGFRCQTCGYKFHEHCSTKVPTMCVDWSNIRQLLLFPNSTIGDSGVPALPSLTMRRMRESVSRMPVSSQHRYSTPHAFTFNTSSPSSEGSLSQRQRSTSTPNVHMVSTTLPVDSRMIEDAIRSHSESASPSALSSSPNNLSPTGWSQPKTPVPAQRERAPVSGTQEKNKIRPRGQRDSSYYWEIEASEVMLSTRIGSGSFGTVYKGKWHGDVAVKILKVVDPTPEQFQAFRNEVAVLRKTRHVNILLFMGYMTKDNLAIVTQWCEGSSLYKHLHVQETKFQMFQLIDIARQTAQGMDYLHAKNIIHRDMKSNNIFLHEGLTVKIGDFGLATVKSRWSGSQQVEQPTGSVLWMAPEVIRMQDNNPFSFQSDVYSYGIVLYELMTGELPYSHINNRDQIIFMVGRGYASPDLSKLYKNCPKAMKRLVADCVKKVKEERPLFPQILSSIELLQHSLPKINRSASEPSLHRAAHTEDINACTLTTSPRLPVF

COC(=O)Nc1nc2ccc(C(=O)c3ccccc3)cc2[nH]1 [MBZ, methyl N-[6-(benzoyl)-1H-benzimidazol-2-yl] carbamate]
Rate-based T/C ([1]; MBZ vs Vehicle, MBZ 40 mg/kg/qad): 1.04
tumor growth (in words) ([1]; MBZ 40 mg/kg/qad): did not work as a monotherapy
pMEK1/2 S217/221 activating phosphorylation (in words) (pMEK1/2 S217/221): not inhibited
activating phosphorylation of ERK1/2 (T202/Y204) (in words) [2]: diminished
concentration at which MBZ inhibits PDGFRB (PDGFRB): 660 nM
remaining activity at 10 µM (MEK1): 16%
remaining activity at 10 µM (C-RAF): 23%
peak plasma level, variability between patients [3]: 0.34 to 1.69 µM
mean peak plasma level ([3]; patients): 470 nM
remaining activity at 10 µM (BRAF (V600E); 10 μM): 3.2%
Kd (BRAF (V600E)): 210 nM
concentration at which significant growth inhibition was observed [4]: ≥ 10 nM
cytotoxic activity as single agent (in words) [4]: weak cytotoxic activity
concentration at which MBZ inhibits VEGFR-2 (VEGFR-2): 3.6 µM
remaining activity at 10 µM (BRAF; 10 μM, Kinase Target BRAF): 7.8%
Kd (BRAF; Kinase Target BRAF (BRAF^WT)): 230 nM
remaining activity at 10 µM (VEGFR2): 20%
concentration at which MBZ inhibits PDGFRA (PDGFRA): 820 nM
MEK1/2 and ERK1/2 phosphorylation in tumors (in words) [5]: ability to suppress
remaining activity at 10 µM (MEK2): 12%
Kd (roundworm tubulin): 19 nM
affinity for human tubulin (human tubulin): µM range

CC(C)(C)c1nc(-c2cccc(NS(=O)(=O)c3c(F)cccc3F)c2F)c(-c2ccnc(N)n2)s1 [dabrafenib]
concentration at which significant growth inhibition was observed [4]: ≥ 1000 nM
cytotoxic activity as single agent (in words) [4]: resistance to dabrafenib except at the highest doses tested

CC(=O)Nc1cccc(-n2c(=O)n(C3CC3)c(=O)c3c(Nc4ccc(I)cc4F)n(C)c(=O)c(C)c32)c1 [trametinib]
Rate-based T/C ([1]; HDT vs Vehicle, high dose trametinib 3 mg/kg/qd): 0.73
Rate-based T/C ([1]; LDT vs Vehicle, low dose trametinib 0.1 mg/kg/qd): 0.93
tumor growth (in words) ([1]; MBZ 40 mg/kg/qad): did not show any significant tumor-suppressive effects
pMEK1/2 S217/221 activating phosphorylation (in words) (pMEK1/2 S217/221): not inhibited
activating phosphorylation of ERK1/2 (T202/Y204) (in words) [2]: diminished
concentration at which significant growth inhibition was observed [4]: ≥ 1 nM
percentage of cells in S phase (in words) [6]: decreased
MEK1/2 and ERK1/2 phosphorylation in tumors (in words) [5]: ability to suppress

— article PMC5355037, “The repurposed anthelmintic mebendazole in combination with trametinib suppresses refractory NRAS^Q61K melanoma” (Oncotarget, 2017)
